Measured values taken from US20250273333A1, “Methods and Apparatus for Diagnosis of Progressive Kidney Function Decline Using a Machine Learning Model” (ICAHN SCHOOL OF MEDICINE AT MOUNT SINAI, priority 2020, published 2025).
“And” between values parts separate entries of the source, which are not always exact repeats. Identical values can stand only once.

Tests used:
Format in all cases: in vivo, human
[1] = system: participants with type 2 diabetes and prevalent DKD; assay: CANVAS trial post hoc analysis: KidneyIntelX risk score over time, canagliflozin vs placebo
Method: Blood and urine samples for exploratory biomarker research can be stored during the CANVAS trial. In some instances, participants can be randomly assigned using a central web-based response system in a 1:1:1 ratio to treatment with 100 mg canagliflozin, 300 mg canagliflozin, or matching placebo. In some instances, participants can be assigned to treatment with canagliflozin or placebo followed for a median of 6.1 years. All participants, care providers, trial staff, and outcome assessors can be blinded to treatment allocation for the duration of the study. […]
Continuous baseline variables with normal distributions can be reported as means with standard deviations (SDs). […] Risk values can be calculated by the KidneyIntelX (using the diagnosis device 101) on the participants in the placebo and canagliflozin arms of CANVAS with prevalent DKD, with the inputs as per the currently commercially available test which include the following: baseline TNFR-1, TNFR-2 and KIM-1 levels, TNFR-2/TNFR-1 ratio, KIM-1/TNFR-1 ratio, eGFR, UACR, HbA1C, systolic BP, AST, platelets, and serum calcium. […] Therefore, by determining proportion experiencing the composite kidney event within the categorical risk strata and used logistic regression, the relative odds of the endpoint for high vs. low risk and intermediate risk score strata can be determined. […]

[2] = system: participants with type 2 diabetes and prevalent DKD; assay: CANVAS trial post hoc analysis: chronic eGFR slope, canagliflozin vs placebo, by risk strata
Method: (§1) Blood and urine samples for exploratory biomarker research can be stored during the CANVAS trial. In some instances, participants can be randomly assigned using a central web-based response system in a 1:1:1 ratio to treatment with 100 mg canagliflozin, 300 mg canagliflozin, or matching placebo. In some instances, participants can be assigned to treatment with canagliflozin or placebo followed for a median of 6.1 years. All participants, care providers, trial staff, and outcome assessors can be blinded to treatment allocation for the duration of the study. KidneyIntelX algorithm can be indicated for individuals with type 2 diabetes and prevalent DKD, defined by an eGFR ≥30 to 59.9 ml/min/1.73 m2 (G3a and G3b) or those with eGFR ≥60 ml/min/1.73 m2 with a UACR ≥30 mg/g to assess the risk for progressive decline in kidney function within a time period (e.g., 5 years). Thus, for analyses, the subgroup of the CANVAS population can be restricted to meet criteria for prevalent DKD at a time of enrollment.
(§2) A composite kidney outcome for such post hoc analysis can be defined as: A) progressive decline in kidney function (rapid kidney function decline (e.g., RKFD; with eGFR decline of ≥5 ml/min/year)); B) a sustained 40% decline of eGFR; or C) kidney failure defined as an eGFR <15 mL/min/1.73 m^2 or need for dialysis or kidney transplantation. In CANVAS, eGFR measurements were available at baseline, 6 weeks and annually. Since hemodynamic effects of SGLT2i on acute changes in eGFR, the anchor/baseline to define progressive decline in kidney function and 40% decline in eGFR for participants in the canagliflozin arm can be the eGFR value at 6 weeks. In some instances, when the eGFR value meet ≥40% decline from baseline only on the last eGFR obtained in the CANVAS protocol, then the event can be adjudicated by a blinded adjudication committee to determine qualification as a valid event. In some instances, eGFR slopes can be determined by linear mixed models.
To explore whether baseline KidneyIntelX scores modified the treatment effect of canagliflozin versus placebo on the composite kidney outcome and chronic eGFR compared to the treatment effect as per the baseline KDIGO risk strata, tests for heterogeneity can be performed by adding interaction terms between KidneyIntelX or KDIGO and randomized treatment assignment to the relevant logistic regression models for the categorical outcome and mixed linear models for the eGFR slopes. The treatment effect of canagliflozin versus placebo on KidneyIntelX risk scores over time can be assessed by calculating the difference of change in risk values generated by the KidneyIntelX algorithm (e.g., using the diagnosis device 101) between treatment arms using mixed linear models. […]

[3] = system: participants with type 2 diabetes and prevalent DKD; assay: CANVAS trial post hoc analysis: composite kidney outcome, canagliflozin vs placebo, by KidneyIntelX risk strata; details: for incidence of the composite kidney outcome: canagliflozin arm
Method: as §1, §2
Continuous baseline variables with normal distributions can be reported as means with standard deviations (SDs). Variables with skewed distributions can be reported as median values with interquartile range (IQRs) and can be natural logarithm transformed before analysis. Furthermore, categorical variables can be reported as percentages. Risk values can be calculated by the KidneyIntelX (using the diagnosis device 101) on the participants in the placebo and canagliflozin arms of CANVAS with prevalent DKD, with the inputs as per the currently commercially available test which include the following: baseline TNFR-1, TNFR-2 and KIM-1 levels, TNFR-2/TNFR-1 ratio, KIM-1/TNFR-1 ratio, eGFR, UACR, HbA1C, systolic BP, AST, platelets, and serum calcium. The risk score cutoffs that were previously validated can applied to the CANVAS participants with DKD and available baseline plasma. Each individual can be allocated a predicted probability of the composite outcome using the baseline inputs as per the risk value generated by the KidneyIntelX algorithm and a continuous KidneyIntelX score between 5 and 100 in increments of 5. For example, consistent with the pre-defined commercial cut offs, participants with a risk value between 5 and 45 can be classified as “low risk”, between 50 and 85 can be classified as “intermediate risk”, and those with a risk value between 90 and 100 can be classified as “high risk”. Therefore, by determining proportion experiencing the composite kidney event within the categorical risk strata and used logistic regression, the relative odds of the endpoint for high vs. low risk and intermediate risk score strata can be determined.
Proportion of participants that experienced composite kidney outcome by KidneyIntelX algorithm risk strata can be compared to a proportion as classified by participants' Kidney Disease Improving Global Outcomes (KDIGO) KDIGO risk strata based on their baseline eGFR and UACR value. […]

## Cc1ccc([C@@H]2O[C@H](CO)[C@@H](O)[C@H](O)[C@H]2O)cc1Cc1ccc(-c2ccc(F)cc2)s1 [canagliflozin, (2S,3R,4R,5S,6R)-2-[3-[[5-(4-fluorophenyl)thiophen-2-yl]methyl]-4-methylphenyl]-6-(hydroxymethyl)oxane-3,4,5-triol]
[1]; over follow-up, vs placebo (FIG. 24)
  duration of effect on KidneyIntelX: persisted over time until the end of follow-up
[1]; randomized to canagliflozin, 95% CI -6.9 to -3.9, placebo increased 6.2%, p<0.001
  decrease of KidneyIntelX from baseline to one year: 5.4%
[2]; high risk KidneyIntelX stratum
  difference in chronic eGFR slope, canagliflozin vs. placebo (protection for eGFR decline): 2.16 ml/min/1.73 m2
[2]; highest risk KDIGO stratum
  difference in chronic eGFR slope, canagliflozin vs. placebo: 1.31 ml/min/1.73 m2
[2]; low risk KidneyIntelX stratum
  difference in chronic eGFR slope, canagliflozin vs. placebo (protection for eGFR decline): 0.66 ml/min/1.73 m2
[2]; moderate/intermediate risk KidneyIntelX stratum
  difference in chronic eGFR slope, canagliflozin vs. placebo (protection for eGFR decline): 1.52 ml/min/1.73 m2
[3]; all participants with baseline biomarkers, 95% CI 0.49, 0.99
  RR for composite kidney outcome, canagliflozin vs. placebo: 0.70
[3]; high risk KidneyIntelX stratum
  incidence of the composite kidney outcome: 23.0% and 23.5%
[3]; intermediate risk KidneyIntelX stratum, mean follow-up 5.6 years
  incidence of the composite kidney outcome: 9.5%
[3]; low risk KidneyIntelX stratum, mean follow-up 5.6 years
  incidence of the composite kidney outcome: 3.6%
[3]; canagliflozin group, all participants with baseline biomarkers (placebo 11.6%)
  composite kidney outcome occurrence: 8.9%
[3]; high-risk KidneyIntelX stratum, 95% CI 0.38-1.18
  RR for the kidney outcome, canagliflozin vs. placebo: 0.67
[3]; high-risk KidneyIntelX stratum, vs placebo arm 31.4%
  absolute risk reduction (ARR) for composite kidney outcome: 7.9%
[3]; intermediate KidneyIntelX stratum, 95% CI 0.36-0.98
  RR for the kidney outcome, canagliflozin vs. placebo: 0.59
[3]; low-risk KidneyIntelX stratum, 95% CI 0.54-5.08
  RR for the kidney outcome, canagliflozin vs. placebo: 1.65
